Experimental data: PubChem BioAssay (NCI)
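96-well plates; 48 h exposure; 5 concentrations. Endpoints by linear interpolation between flanking doses. Not reached: highest tested concentration assigned. GI50 = concentration required for 50% inhibition of growth. TGI is the concentration that stops growth completely.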

Tests used:
Assay in all cases: inhibition of tumour cell growth, NCI panel, 48 h
786-0 renal = system: 786-0 renal
A498 renal = system: A498 renal
A549 NSCLC = system: A549 NSCLC
ACHN renal = system: ACHN renal
BT-549 breast = system: BT-549 breast
CAKI-1 renal = system: CAKI-1 renal
CCRF-CEM leukemia = system: CCRF-CEM leukemia
COLO 205 colon = system: COLO 205 colon
DU-145 prostate = system: DU-145 prostate
EKVX NSCLC = system: EKVX NSCLC
HCC-2998 colon = system: HCC-2998 colon
HCT-116 colon = system: HCT-116 colon
HCT-15 colon = system: HCT-15 colon
HL-60(TB) leukemia = system: HL-60(TB) leukemia
HOP-62 NSCLC = system: HOP-62 NSCLC
HOP-92 NSCLC = system: HOP-92 NSCLC
HS 578T breast = system: HS 578T breast
HT29 colon = system: HT29 colon
IGROV1 ovarian = system: IGROV1 ovarian
K-562 leukemia = system: K-562 leukemia
KM12 colon = system: KM12 colon
LOX IMVI melanoma = system: LOX IMVI melanoma
M14 melanoma = system: M14 melanoma
MALME-3M melanoma = system: MALME-3M melanoma
MCF7 breast = system: MCF7 breast
MDA-MB-231 breast = system: MDA-MB-231 breast
MDA-MB-435 = system: MDA-MB-435
MOLT-4 leukemia = system: MOLT-4 leukemia
NCI-H226 lung = system: NCI-H226 lung
NCI-H460 lung = system: NCI-H460 lung
NCI-H522 lung = system: NCI-H522 lung
NCI/ADR-RES ovarian = system: NCI/ADR-RES ovarian
OVCAR-4 ovarian = system: OVCAR-4 ovarian
OVCAR-5 ovarian = system: OVCAR-5 ovarian
OVCAR-8 ovarian = system: OVCAR-8 ovarian
PC-3 prostate = system: PC-3 prostate
RPMI-8226 leukemia = system: RPMI-8226 leukemia
RXF 393 renal = system: RXF 393 renal
SF-268 CNS = system: SF-268 CNS
SF-295 CNS = system: SF-295 CNS
SF-539 CNS = system: SF-539 CNS
SK-MEL-2 melanoma = system: SK-MEL-2 melanoma
SK-MEL-28 melanoma = system: SK-MEL-28 melanoma
SK-MEL-5 melanoma = system: SK-MEL-5 melanoma
SK-OV-3 ovarian = system: SK-OV-3 ovarian
SN12C renal = system: SN12C renal
SNB-19 CNS = system: SNB-19 CNS
SNB-75 CNS = system: SNB-75 CNS
SR leukemia = system: SR leukemia
SW-620 colon = system: SW-620 colon
T-47D breast = system: T-47D breast
TK-10 renal = system: TK-10 renal
U251 CNS = system: U251 CNS
UACC-257 melanoma = system: UACC-257 melanoma
UACC-62 melanoma = system: UACC-62 melanoma
UO-31 renal = system: UO-31 renal

CC1(C)CC[C@]23CC[C@]4(C)[C@H](CC[C@@H]5[C@@]6(C)CC[C@H](NCO)C(C)(C)[C@@H]6CC[C@]54C)[C@H]2[C@H]1OC3
GI50 (786-0 renal): 3.77 µM
TGI (786-0 renal): 15.3 µM
GI50 (A498 renal): 14.1 µM
TGI (A498 renal): 27.1 µM
GI50 (A549 NSCLC): 4.39 µM
TGI (A549 NSCLC): 18.1 µM
GI50 (ACHN renal): 5.01 µM
TGI (ACHN renal): 17.1 µM
GI50 (BT-549 breast): 15.6 µM
TGI (BT-549 breast): 28.9 µM
GI50 (CAKI-1 renal): 10.2 µM
TGI (CAKI-1 renal): 23.3 µM
GI50 (CCRF-CEM leukemia): 5.93 µM
TGI (CCRF-CEM leukemia): > 100 µM
GI50 (COLO 205 colon): 2.06 µM
TGI (COLO 205 colon): 4.18 µM
GI50 (DU-145 prostate): 14.1 µM
TGI (DU-145 prostate): 32 µM
GI50 (EKVX NSCLC): 16.9 µM
TGI (EKVX NSCLC): 32.5 µM
GI50 (HCC-2998 colon): 1.95 µM
TGI (HCC-2998 colon): 4.17 µM
GI50 (HCT-116 colon): 3.7 µM
TGI (HCT-116 colon): 12.9 µM
GI50 (HCT-15 colon): 2.9 µM
TGI (HCT-15 colon): 10.9 µM
GI50 (HL-60(TB) leukemia): 1.58 µM
TGI (HL-60(TB) leukemia): 4.62 µM
GI50 (HOP-62 NSCLC): 15.5 µM
TGI (HOP-62 NSCLC): 35.7 µM
GI50 (HOP-92 NSCLC): 2.82 µM
TGI (HOP-92 NSCLC): 18.3 µM
GI50 (HS 578T breast): 15.3 µM
TGI (HS 578T breast): 42 µM
GI50 (HT29 colon): 5.25 µM
TGI (HT29 colon): 17.4 µM
GI50 (IGROV1 ovarian): 7.56 µM
TGI (IGROV1 ovarian): 22.6 µM
GI50 (K-562 leukemia): 2.35 µM
TGI (K-562 leukemia): 6.9 µM
GI50 (KM12 colon): 17.5 µM
TGI (KM12 colon): 31.3 µM
GI50 (LOX IMVI melanoma): 1.52 µM
TGI (LOX IMVI melanoma): 2.95 µM
GI50 (M14 melanoma): 11.5 µM
TGI (M14 melanoma): 23.7 µM
GI50 (MALME-3M melanoma): 16 µM
TGI (MALME-3M melanoma): 34.3 µM
GI50 (MCF7 breast): 2.25 µM
TGI (MCF7 breast): 6.4 µM
GI50 (MDA-MB-231 breast): 4 µM
TGI (MDA-MB-231 breast): 17.4 µM
GI50 (MDA-MB-435): 12.9 µM
TGI (MDA-MB-435): 25.6 µM
GI50 (MOLT-4 leukemia): 3.16 µM
TGI (MOLT-4 leukemia): 16.1 µM
GI50 (NCI-H226 lung): 14.9 µM
TGI (NCI-H226 lung): 34 µM
GI50 (NCI-H460 lung): 2.24 µM
TGI (NCI-H460 lung): 5.03 µM
GI50 (NCI-H522 lung): 16.3 µM
TGI (NCI-H522 lung): 32 µM
GI50 (NCI/ADR-RES ovarian): 14 µM
TGI (NCI/ADR-RES ovarian): 30.9 µM
GI50 (OVCAR-4 ovarian): 14.3 µM
TGI (OVCAR-4 ovarian): 31 µM
GI50 (OVCAR-5 ovarian): 11.8 µM
TGI (OVCAR-5 ovarian): 24.1 µM
GI50 (OVCAR-8 ovarian): 3.25 µM
TGI (OVCAR-8 ovarian): 11.9 µM
GI50 (PC-3 prostate): 10.8 µM
TGI (PC-3 prostate): 31.6 µM
GI50 (RPMI-8226 leukemia): 3.64 µM
TGI (RPMI-8226 leukemia): 18.7 µM
GI50 (RXF 393 renal): 6.16 µM
TGI (RXF 393 renal): 20.4 µM
GI50 (SF-268 CNS): 16.3 µM
TGI (SF-268 CNS): 37.9 µM
GI50 (SF-295 CNS): 14.4 µM
TGI (SF-295 CNS): 28.7 µM
GI50 (SF-539 CNS): 12.3 µM
TGI (SF-539 CNS): 26.5 µM
GI50 (SK-MEL-2 melanoma): 14.2 µM
TGI (SK-MEL-2 melanoma): 27.2 µM
GI50 (SK-MEL-28 melanoma): 15.5 µM
TGI (SK-MEL-28 melanoma): 28.9 µM
GI50 (SK-MEL-5 melanoma): 15.3 µM
TGI (SK-MEL-5 melanoma): 28.6 µM
GI50 (SK-OV-3 ovarian): 15 µM
TGI (SK-OV-3 ovarian): 31.4 µM
GI50 (SN12C renal): 12 µM
TGI (SN12C renal): 30 µM
GI50 (SNB-19 CNS): 16.7 µM
TGI (SNB-19 CNS): 36.6 µM
GI50 (SNB-75 CNS): 16.8 µM
TGI (SNB-75 CNS): 33.4 µM
GI50 (SR leukemia): 0.741 µM
TGI (SR leukemia): 6.71 µM
GI50 (SW-620 colon): 1.7 µM
TGI (SW-620 colon): 3.7 µM
GI50 (T-47D breast): 7.72 µM
TGI (T-47D breast): 28.9 µM
GI50 (TK-10 renal): 22.6 µM
TGI (TK-10 renal): 38 µM
GI50 (U251 CNS): 2.5 µM
TGI (U251 CNS): 8.16 µM
GI50 (UACC-257 melanoma): 14.7 µM
TGI (UACC-257 melanoma): 28.3 µM
GI50 (UACC-62 melanoma): 16.9 µM
TGI (UACC-62 melanoma): 31.5 µM
GI50 (UO-31 renal): 13.3 µM
TGI (UO-31 renal): 28.1 µM
